The nature of data set [1]: Selectivity index, ratio of CC50 for human HepG2.2.15 cells to IC50 for HBV e-antigen secretion. The data set is classed as functional.
The nature of data set [2]: Cytotoxicity against human HepG2.2.15 cells by MTT assay. It is filed as cell-based, HepG2 2.2.15. A general note: Tetrazolium dyes change colour on reduction, which living cells bring about.
Data set [3] in a line: Cytotoxicity against human C8166 cells after 72 hrs by MTT assay. The data set is classed as cell-based.
Data set [4] deals with Human immunodeficiency virus 1. Nature of the data set: Antiviral activity against HIV1 in human C8166 cells assessed as protection against viral-induced cytopathic effect by syncytium reduction assay. It is filed as functional, organism-based. The note with it: Human immunodeficiency virus 1, C8166. On the technique in general: Protection from cytopathic effect is a common read-out in antiviral testing.

Data set [5] can be described thus: Selectivity index, ratio of CC50 for human C8166 cells to EC50 for HIV1. Particulars: read-out: Ratio CC50/EC50. The data set is classed as toxicity, cell-based.
Data set [6] deals with Hepatitis B virus. Nature of the data set: Antiviral activity against HBV assessed as inhibition of viral e-antigen secretion in HepG2.2.15 cells by ELISA. The note with it: HepG2 2.2.15. It is filed as functional, organism-based.
Data set [7] can be described thus: Selectivity index, ratio of CC50 for human HepG2.2.15 cells to IC50 for HBV surface antigen secretion. The data set is classed as functional.
Data set [8] deals with Hepatitis B virus. Nature of the data set: Antiviral activity against HBV assessed as inhibition of viral surface antigen secretion in HepG2.2.15 cells by ELISA. The note with it: HepG2 2.2.15. It is filed as functional, organism-based. On the technique in general: ELISA stands for enzyme-linked immunosorbent assay.

On to `COc1cc2c(cc1OC)[C@@H]1Cc3ccc(OC)c(OC)c3C(=O)N1CC2`, for which the “Ratio CC50/IC50” value in data set [1] was below 1; in data set [7], 22.4. Moreover, in data set [2], the CC50 (as a rule, the concentration that lowers cell viability or growth by half) worked out at 3000 µM. In addition, the 50% cytotoxic concentration (CC50) at 72 h in data set [3] came out at 307 µM. For the same molecule, the concentration for a half-maximal effect (EC50) (commonly the midpoint of the concentration-response curve) in data set [4] turned out to be 14.1 µM. Besides, the selectivity ratio in data set [5] turned out to be 18.8. For the same molecule, the IC50 (usually the midpoint of a concentration-inhibition curve) in the data set with Hepatitis B virus [6] is above 7470 µM; in the data set on Hepatitis B virus [8] it was 140 µM.

In turn, `COc1c(OC)c2c3c(nccc3c1OC)-c1cc(O)ccc1-2` [IMERUBRINE] displayed a CC50 in data set [2] above 3880 µM. Also, in data set [3], the half-maximal cytotoxic concentration (CC50) at 72 h was 493 µM. Further, the EC50 in data set [4] is 10.9 µM. In data set [5], the selectivity ratio stood at 45.7. The IC50 is above 3880 µM with Hepatitis B virus [6] and 930 µM in the data set with Hepatitis B virus [8]. For the same molecule, the “Ratio CC50/IC50” value in data set [7] is above 4.17.

Regarding `CO[C@@H]1C(=O)C[C@]23CC(=O)N(C)[C@@]24C[C@@H](O[C@]14OC)c1cc2c(cc13)OCO2` [PERIGLAUCINE C], the figures for the “Ratio CC50/IC50” value in data set [1] and in data set [7] were below 1 and 1.37, respectively. The CC50 in data set [2] stood at 2360 µM. The same molecule came in with a 50% cytotoxic concentration (CC50) at 72 h in data set [3] above 516 µM. The EC50 in data set [4] was 162 µM. The selectivity ratio in data set [5] was determined as 3.29. In addition, the IC50 was above 3690 µM in the data set with Hepatitis B virus [6] and 1720 µM with Hepatitis B virus [8].

For the molecule `CO[C@@H]1C(=O)C[C@]23C[C@H](CC(C)=O)N(C)[C@@]24C[C@@H](O[C@]14OC)c1cc2c(cc13)OCO2` [PERIGLAUCINE D], the “Ratio CC50/IC50” value in data set [1] was below 1; in data set [7], 3.07. The molecule further had a CC50 in data set [2] of 2060 µM. This molecule came in with a 50% cytotoxic concentration (CC50) at 72 h in data set [3] above 466 µM. In addition, in data set [4], the EC50 turned out to be 334 µM. In addition, in data set [5], the selectivity ratio stood at 1.65. The IC50 stood at 3010 µM in the data set with Hepatitis B virus [6] and 670 µM in the data set on Hepatitis B virus [8].

As for `Cc1cn([C@H]2C[C@H](N=[N+]=[N-])[C@@H](CO)O2)c(=O)[nH]c1=O` [ZIDOVUDINE], the EC50 in data set [4] was 0.0108 µM. The selectivity ratio in data set [5] amounted to 471.

For the molecule `CO[C@H]1C(=O)C[C@]23CCN(C)[C@@]24C[C@@H](O[C@]14OC)c1cc2c(cc13)OCO2` [PERIGLAUCINE B], the figures for the “Ratio CC50/IC50” value in data set [1] and in data set [7] were below 1 and 1.36, respectively. In data set [2], this molecule gave a CC50 of 640 µM. Moreover, the 50% cytotoxic concentration (CC50) at 72 h in data set [3] is above 536 µM. Besides, the EC50 in data set [4] stood at 389 µM. For the same molecule, the selectivity ratio in data set [5] is 1.61. Also, the results for the half-maximal inhibitory concentration (IC50) in the data set with Hepatitis B virus [6] and in the data set on Hepatitis B virus [8] were 3090 µM and 470 µM, respectively.

`COc1ccc2c(c1OC)C(=O)N1CCc3cc4c(cc3[C@@H]1C2)OCO4` displayed a half-maximal cytotoxic concentration (CC50) in data set [2] above 3400 µM. For the same molecule, the IC50 with Hepatitis B virus [6] and with Hepatitis B virus [8] was above 3400 µM each time.

Turning to `CO[C@@H]1C(=O)C[C@]23CCN(C)[C@@]24C[C@@H](O[C@]14OC)c1cc2c(cc13)OCO2` [PERIGLAUCINE A], the “Ratio CC50/IC50” value is recorded as below 1 in data set [1] and 2.85 in data set [7]. Further, the CC50 in data set [2] stood at 2960 µM. This molecule also returned a CC50 at 72 h in data set [3] above 536 µM. In addition, in data set [4], the half-maximal effective concentration (EC50) was determined as 204 µM. In data set [5], the selectivity ratio stood at 4.03. Besides, the results for the IC50 in the data set on Hepatitis B virus [6] and in the data set with Hepatitis B virus [8] were 3410 µM and 1040 µM, respectively.

For the origin of these results see ChEMBL document CHEMBL1150244, “Periglaucines A-D, anti-HBV and -HIV-1 alkaloids from Pericampylus glaucus” (J Nat Prod, 2008).
